Test results from US20260103453A1, “NOVEL PYRIMIDINE DERIVATIVE AS BRUTON'S TYROSINE KINASE INHIBITOR” (HANMI PHARM. CO., LTD., priority 2022, published 2026).

Biological target: BTK enzyme (Homo sapiens, UniProt Q06187)
Experiment: Z'-LYTE kinase assay, BTK enzyme activity inhibition (ThermoFisher SelectScreen)
Format: biochemical
Details: 60 minutes reaction at room temperature, compound 1,000 nM to 0.32 nM
Protocol: To do this, the SelectScreen profiling service was requested to the ThermoFisher company to proceed the Z′-LYTE kinase assay. The simple test method can be summarized as follows.
The compounds prepared in Examples above were each dissolved in DMSO to prepare a 10 mM solution, which was then delivered to the ThermoFisher Scientific company. According to the protocol provided by the ThermoFisher Scientific company, the solution of each compound was diluted in 100% DMSO to a have a concentration of 1,000 nM to 0.32 nM (dilution factor of 1/5). Next, the BTK enzyme was diluted in a kinase buffer (50 mM HEPES (PH 7.5), 10 mM MgCl2, 1 mM EGTA, 0.01% BRIJ-35) to a concentration of up to 10 ng/assay. The test was performed in a low volume 384-well plate (low volume NBS, black 384-well plate). First, 100 nL of the diluted compound solution was added to a sample, and then 2.4 μL of buffer, 5 μL of mixed solution of peptide substrate and kinase at twice (2×) the concentration listed in the protocol, and 2.5 μL of 140 μm ATP solution were added thereto, followed by stirring for 30 seconds. Then, it was allowed for a reaction at room temperature for 60 minutes. Afterwards, 5 μL of a color developing solution was added thereto and stirred for 30 seconds, and fluorescence of the peptide substrate was reacted for 60 minutes. After completion of the reaction, each fluorescence value (400 nm excitation filter, 445/520 nm emission filter) was measured by using a fluorescence plate reader.

BTK enzyme, sequence (Q06187 whole entry): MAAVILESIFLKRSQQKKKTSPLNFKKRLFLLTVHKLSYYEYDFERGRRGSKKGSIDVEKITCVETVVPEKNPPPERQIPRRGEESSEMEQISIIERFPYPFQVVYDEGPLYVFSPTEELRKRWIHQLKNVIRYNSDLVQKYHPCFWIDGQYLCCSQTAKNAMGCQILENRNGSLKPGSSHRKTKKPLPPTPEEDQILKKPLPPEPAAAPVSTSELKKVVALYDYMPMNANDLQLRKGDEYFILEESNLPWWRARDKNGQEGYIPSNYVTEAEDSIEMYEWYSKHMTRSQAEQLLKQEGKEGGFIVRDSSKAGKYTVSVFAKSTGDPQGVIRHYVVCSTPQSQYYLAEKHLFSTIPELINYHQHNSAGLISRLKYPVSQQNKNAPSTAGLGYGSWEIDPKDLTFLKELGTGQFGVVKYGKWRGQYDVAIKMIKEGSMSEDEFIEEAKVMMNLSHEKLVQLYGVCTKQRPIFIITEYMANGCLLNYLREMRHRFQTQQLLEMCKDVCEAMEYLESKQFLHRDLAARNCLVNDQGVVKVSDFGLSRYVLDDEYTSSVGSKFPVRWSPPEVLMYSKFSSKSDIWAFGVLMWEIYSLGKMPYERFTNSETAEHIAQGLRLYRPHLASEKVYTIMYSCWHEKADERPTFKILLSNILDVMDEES

Row | SMILES | IC50 [nM]
1 | C=CC(=O)N(C)CC#Cc1c(N)ncnc1-c1cc(F)cc(NC(=O)c2ccc(C(C)C)cc2F)c1C [Example 1] | 1.7
2 | C=CC(=O)N(C)CC#Cc1c(N)ncnc1-c1cc(F)cc(NC(=O)c2ccc(C3CC3)cc2F)c1C [Example 2] | 1.5
3 | C=CC(=O)N(C)CC#Cc1c(N)ncnc1-c1cc(F)cc(N2CCc3cc(C4CC4)cc(F)c3C2=O)c1 [Example 3, N-(3-(4-amino-6-(3-(6-cyclopropyl-8-fluoro-1-oxo-3,4-dihydroisoquinolin-2(1H)-yl)-5-fluorophenyl)pyrimidin-5-yl)prop-2-yn-1-yl)-N-methylacrylamide] | 3.8
4 | C=CC(=O)N(C)CC#Cc1c(N)ncnc1-c1cc(F)cc(N2CCc3cc(C4CC4)cc(F)c3C2=O)c1C [Example 4, N-(3-(4-amino-6-(3-(6-cyclopropyl-8-fluoro-1-oxo-3,4-dihydroisoquinolin-2(1H)-yl)-5-fluoro-2-methylphenyl)pyrimidin-5-yl)prop-2-yn-1-yl)-N-methylacrylamide] | 5.3
5 | C=CC(=O)N(C)CC#Cc1c(N)ncnc1-c1cc(F)cc(-n2ccc3cc(C4CC4)cc(F)c3c2=O)c1 [Example 5, N-(3-(4-amino-6-(3-(6-cyclo-8-fluoro-1-oxoisoquinolin-2(1H)-yl)-5-fluorophenyl)pyrimidin-5-yl)prop-2-yn-1-yl)-N-methylacrylamide] | 6
6 | C=CC(=O)N(C)CC#Cc1c(N)ncnc1-c1cc(F)cc(-n2ncc3cc(C(C)(C)C)cc(F)c3c2=O)c1 [Example 10, N-(3-(4-amino-6-(3-(6-(tert-butyl)-8-fluoro-1-oxophthalazin-2-(1H)-yl)-5-fluorophenyl)pyrimidin-5-yl)prop-2-yn-1-yl)-N-methylacrylamide] | 2.3
7 | C=CC(=O)N(C)CC#Cc1c(N)ncnc1-c1cc(F)cc(-n2ncc3cc(C4CC4)ccc3c2=O)c1C [Example 11, N-(3-(4-amino-6-(3-(6-cyclopropyl-1-oxophthalazin-2(1H)-yl)-5-fluoro-2-methylphenyl)pyrimidin-5-yl)prop-2-yn-1-yl)-N-methylacrylamide] | 10
8 | C=CC(=O)N(C)CC#Cc1c(N)ncnc1-c1cc(F)cc(-n2ncc3cc(C4CC4)cc(F)c3c2=O)c1C [Example 12, N-(3-(4-amino-6-(3-(6-cyclopropyl-8-fluoro-1-oxophthalazin-2(1H)-yl)-5-fluoro-2-methylphenyl)pyrimidin-6-yl)prop-2-yn-1-yl)-N-methylacrylamide] | 4.9
9 | C=CC(=O)N(C)CC#Cc1c(N)ncnc1-c1cc(F)cc(-n2ncc3cc(C(C)(C)C)cc(F)c3c2=O)c1C [Example 13] | 44
10 | C=CC(=O)N(C)CC#Cc1c(N)ncnc1-c1cc(F)cc(-n2ncc3cc(C(C)(C)C)ccc3c2=O)c1 [Example 14] | 24
11 | C=CC(=O)N(C)CC#Cc1c(N)ncnc1-c1cc(F)cc(-n2cnc3cc(C4CC4)cc(F)c3c2=O)c1 [Example 15, N-(3-(4-amino-6-(3-(7-cyclopropyl-5-fluoro-4-oxoquinazolin-3(4H)-yl)-5-fluorophenyl)pyrimidin-5-yl)prop-2-yn-1-yl)-N-methylacrylamide] | 34

Further lines, results first:

Row | IC50 [nM] | SMILES
12 | 3 | C=CC(=O)N(C)CC#Cc1c(N)ncnc1-c1cc(F)cc(-n2ccc3cc(C4CC4)cc(F)c3c2=O)c1C [Example 6, N-(3-(4-amino-6-(3-(6-cyclopropyl-8-fluoro-1-oxoisoquinolin-2(1H)-yl)-5-fluoro-2-methylphenyl)pyrimidin-5-yl)prop-2-yn-1-yl)-N-methylacrylamide]
13 | 20 | C=CC(=O)N(C)CC#Cc1c(N)ncnc1-c1cc(F)cc(-n2ccc3cc(C4CC4)cc(F)c3c2=O)c1F [Example 7, N-(3-(4-amino-6-(3-(6-cyclopropyl-8-fluoro-1-oxoisoquinolin-2(1H)-yl)-2,5-difluorophenyl)pyrimidin-5-yl)prop-2-yn-1-yl)-N-methylacrylamide]
14 | 3.4 | C=CC(=O)N(C)CC#Cc1c(N)ncnc1-c1cc(C)cc(-n2ccc3cc(C4CC4)cc(F)c3c2=O)c1C [Example 8, N-(3-(4-amino-6-(3-(6-cyclopropyl-8-fluoro-1-oxoisoquinolin-2(1H)-yl)-2,5-dimethylphenyl)pyrimidin-5-yl)prop-2-yn-1-yl)-N-methylacrylamide]
15 | 34 | C=CC(=O)NCC#Cc1c(N)ncnc1-c1cc(F)cc(-n2ccc3cc(C4CC4)cc(F)c3c2=O)c1C [Example 9, N-(3-(4-amino-6-(3-(6-cyclopropyl-8-fluoro-1-oxoisoquinolin-2(1H)-yl)-5-fluoro-2-methylphenyl)pyrimidin-5-yl)prop-2-yn-1-yl)acrylamide]
16 | 29 | C=CC(=O)N1CCC[C@@H]1C#Cc1c(N)ncnc1-c1cc(F)cc(-n2ccc3cc(C4CC4)cc(F)c3c2=O)c1C [Example 16, (R)-2-(3-(5-((1-acryloylpyrrolidin-2-yl)ethynyl)-6-aminopyrimidin-4-yl)-5-fluoro-2-methylphenyl)-6-cyclopropyl-8-fluoroisoquinolin-1-(2H)-one]
17 | 4.1 | C=CC(=O)N1CCC[C@H]1C#Cc1c(N)ncnc1-c1cc(F)cc(-n2ccc3cc(C4CC4)cc(F)c3c2=O)c1C [Example 17, (S)-2-(3-(5-((1-acryloylpyrrolidin-2-yl)ethynyl)-6-aminopyrimidin-4-yl)-6-fluoro-2-methylphenyl)-6-cyclopropyl-8-fluoroisoquinolin-1-(2H)-one]
18 | 9.7 | C=CC(=O)N1CCC[C@H]1C#Cc1c(N)ncnc1-c1cc(F)cc(-n2ccc3cc(C(C)C)cc(F)c3c2=O)c1C [Example 18, (S)-2-(3-(5-((1-acryloylpyrrolidin-2-yl)ethynyl)-6-aminopyrimidin-4-yl)-6-fluoro-2-methylphenyl)-8-fluoro-6-isoquinolin-1-(2H)-one]
19 | 201 | C=C(F)C(=O)N1CCC[C@H]1C#Cc1c(N)ncnc1-c1cc(F)cc(-n2ccc3cc(C4CC4)cc(F)c3c2=O)c1C [Example 19, (S)-2-(3-(6-amino-5-((1-(2-fluoroacryloyl)pyrrolidin-2-yl)ethynyl)pyrimidin-4-yl)-5-fluoro-2-methylphenyl)-6-cyclopropyl-8-fluoroisoquinolin-1(2H)-one]
20 | 16 | C=C(Cl)C(=O)N1CCC[C@H]1C#Cc1c(N)ncnc1-c1cc(F)cc(-n2ccc3cc(C4CC4)cc(F)c3c2=O)c1C [Example 20, (S)-2-(3-(6-amino-5-((1-(2-chloroacryloyl)pyrrolidin-2-yl)ethynyl)pyrimidin-4-yl)-5-fluoro-2-methylphenyl)-6-cyclopropyl-8-fluoroisoquinolin-1(2H)-one]
21 | 5.7 | C=CC(=O)N1CCCCC1C#Cc1c(N)ncnc1-c1cc(F)cc(-n2ccc3cc(C4CC4)cc(F)c3c2=O)c1C (stereo not shown) [Example 22, 2-(3-(5-((1-acryloylpiperidin-2-yl)ethynyl)-6-aminopyrimidin-4-yl)-5-fluoro-2-methylphenyl)-6-cyclopropyl-8-isoquinolin-1(2H)-one]
22 | 8.7 | C=CC(=O)N1CCCC[C@H]1C#Cc1c(N)ncnc1-c1cc(F)cc(-n2ccc3cc(C4CC4)cc(F)c3c2=O)c1C [Example 23]
